Tests used:
[1] = tested on: cardiac fractional shortening; experiment: Echocardiography of rat cardiac contractility, oral dosing; format: in vivo, Sprague Dawley rats
Procedure: Assessment of in vivo cardiac function by echocardiography was performed in male Sprague Dawley rats under isoflurane (1-3%) anesthesia. 2-D M-mode images of the left ventricle were acquired in the parasternal long-axis view before, during, and after administration of compounds by continuous IV infusion or oral gavage. In vivo fractional shortening was determined by M-mode image analysis with the following calculation: ((End diastolic diameter−end systolic diameter)/end diastolic diameter×100). For continuous IV infusion experiments, three pre-dose baseline M-mode images were taken at 1 minute intervals prior to infusion of compound. Compounds were formulated in 50% Propylene Glycol (PG): 16% Captisol: 10% dimethylacetamide (DMA) and delivered via a jugular vein catheter at the rate of 1 mL/kg/h. During infusion, M-mode images were taken at 5 minute intervals. The infusion stopped when fractional shortening reached up to a 60% reduction from baseline. Blood samples were taken to determine the plasma concentration of the compounds. Data was reported as an estimated IC50 value, which is the concentration at which fractional shortening is 50% of the pre-dose baseline contractility. […] For oral dosing studies, three pre-dose baseline M-Mode images were taken at 1 minute intervals prior to compound administration. (R)—N-(5-(5-isopropyl-1,2,4-oxadiazol-3-yl)-2,3-dihydro-1H-inden-1-yl)-2-methyl-2H-tetrazole-5-carboxamide was formulated in a 0.5% hydroxypropyl methylcellulose 2910 (HPMC 2910): 0.1% Tween 80 suspension and delivered as a single dose (5 mL/kg) by oral gavage. Rats were lightly anesthetized for M-Mode echocardiography measurements at select time points over a 24 hour period. Different dose levels were evaluated. The compound effect on cardiac fractional shortening at the highest dose evaluated is presented below as a percent reduction of baseline fractional shortening (=100%). Concurrent with echocardiography measurements, blood samples were taken to determine the corresponding compound plasma concentration.

[2] = biological target: T1, bovine cardiac myofibrils (Bos taurus, UniProt Q9BE39); experiment: Skinned bovine cardiac myofibril ATPase assay (PK/LDH-coupled); format: biochemical; conditions: steady-state ATPase, Ca2+ giving 75% activation of myofibril ATPase
T1 construct: full-length cardiac myosin in the context of the native sarcomere; from tissue; host or cells: bovine cardiac left ventricular tissue (Triton X-100 skinned myofibrils)
Procedure: To evaluate the effect of (R)—N-(5-(5-isopropyl-1,2,4-oxadiazol-3-yl)-2,3-dihydro-1H-inden-1-yl)-2-methyl-2H-tetrazole-5-carboxamide on the ATPase activity of full-length cardiac myosin in the context of the native sarcomere, skinned myofibril assays were performed. Bovine cardiac myofibrils were obtained by homogenizing bovine cardiac left ventricular tissue in the presence of a detergent such as triton X-100. Such treatment removes membranes and a majority of the soluble cytoplasmic proteins but leaves intact the cardiac sarcomeric acto-myosin apparatus. Myofibril preparations retain the ability to hydrolyze ATP in a Ca^2+ regulated manner. […] Small molecule agents were assessed for their ability to inhibit the steady-state ATPase activity of bovine cardiac myofibrils using pyruvate kinase and lactate dehydrogenase (PK/LDH)-coupled enzyme system. This assay regenerates myosin-produced ADP into ATP by oxidizing NADH, producing an absorbance change at 340 nm. Prior to testing small molecule agents, the bovine cardiac myofibrils were assessed for their calcium responsiveness and the calcium concentration that achieves either a 50% (pCa50) or 75% (pCa75) activation of the myofibril system was chosen as the final condition for assessing the inhibitory activity of the small molecule agents.

[3] = tested on: cardiac fractional shortening; experiment: Echocardiography of rat cardiac contractility, continuous IV infusion; format: in vivo, Sprague Dawley rats; conditions: Mean±S.D., read-out: estimated IC50 (plasma concentration at which fractional shortening is 50% of pre-dose baseline)
Procedure: Assessment of in vivo cardiac function by echocardiography was performed in male Sprague Dawley rats under isoflurane (1-3%) anesthesia. 2-D M-mode images of the left ventricle were acquired in the parasternal long-axis view before, during, and after administration of compounds by continuous IV infusion or oral gavage. In vivo fractional shortening was determined by M-mode image analysis with the following calculation: ((End diastolic diameter−end systolic diameter)/end diastolic diameter×100). For continuous IV infusion experiments, three pre-dose baseline M-mode images were taken at 1 minute intervals prior to infusion of compound. Compounds were formulated in 50% Propylene Glycol (PG): 16% Captisol: 10% dimethylacetamide (DMA) and delivered via a jugular vein catheter at the rate of 1 mL/kg/h. During infusion, M-mode images were taken at 5 minute intervals. The infusion stopped when fractional shortening reached up to a 60% reduction from baseline. Blood samples were taken to determine the plasma concentration of the compounds. Data was reported as an estimated IC50 value, which is the concentration at which fractional shortening is 50% of the pre-dose baseline contractility.

[4] = tested on: adult rat ventricular myocytes; experiment: Myocyte contractility assay (fractional shortening, edge detection); format: cell-based, Sprague-Dawley rats; conditions: 5 μM, 5 min perfusion, 5 cells tested
Procedure: Adult male Sprague-Dawley rats were anesthetized and the hearts were quickly excised, rinsed and the ascending aorta was cannulated. Continuous retrograde perfusion was initiated on the hearts at a perfusion pressure of 60 cm H2O. Hearts were first perfused with a nominally Ca^2+-free modified Krebs solution of the following composition: 113 mM NaCl, 4.7 mM KCl, 0.6 mM KH2PO4, 0.6 mM Na2HPO4, 1.2 mM MgSO4, 12 mM NaHCO3, 10 mM KHCO3, 30 mM taurine, 5.5 mM glucose and 10 mM Hepes (all Sigma). This medium is not recirculated and is continually aerated with a 95% O2/5% CO2 mixture. […]
Aliquots of myocytes in Tyrode's buffer were placed in perfusion chambers (series 20 RC-27NE; Warner Instruments) complete with heating platforms. […] Contractility of the myocytes and contraction and relaxation velocities were then recorded using edge detection.
Five or more individual myocytes were tested per compound from two or more different myocyte preparations. […] These average transients were analyzed using the IonWizard software (IonOptix) to determine changes in diastolic length and fractional shortening. Fractional shortening was calculated as: ((resting length−length at peak contraction) divided by the resting length). The percent change in fractional shortening from baseline was calculated as: ((post-dose fractional shortening/basal fractional shortening)*100). […]

T1 sequence (Q9BE39 whole entry): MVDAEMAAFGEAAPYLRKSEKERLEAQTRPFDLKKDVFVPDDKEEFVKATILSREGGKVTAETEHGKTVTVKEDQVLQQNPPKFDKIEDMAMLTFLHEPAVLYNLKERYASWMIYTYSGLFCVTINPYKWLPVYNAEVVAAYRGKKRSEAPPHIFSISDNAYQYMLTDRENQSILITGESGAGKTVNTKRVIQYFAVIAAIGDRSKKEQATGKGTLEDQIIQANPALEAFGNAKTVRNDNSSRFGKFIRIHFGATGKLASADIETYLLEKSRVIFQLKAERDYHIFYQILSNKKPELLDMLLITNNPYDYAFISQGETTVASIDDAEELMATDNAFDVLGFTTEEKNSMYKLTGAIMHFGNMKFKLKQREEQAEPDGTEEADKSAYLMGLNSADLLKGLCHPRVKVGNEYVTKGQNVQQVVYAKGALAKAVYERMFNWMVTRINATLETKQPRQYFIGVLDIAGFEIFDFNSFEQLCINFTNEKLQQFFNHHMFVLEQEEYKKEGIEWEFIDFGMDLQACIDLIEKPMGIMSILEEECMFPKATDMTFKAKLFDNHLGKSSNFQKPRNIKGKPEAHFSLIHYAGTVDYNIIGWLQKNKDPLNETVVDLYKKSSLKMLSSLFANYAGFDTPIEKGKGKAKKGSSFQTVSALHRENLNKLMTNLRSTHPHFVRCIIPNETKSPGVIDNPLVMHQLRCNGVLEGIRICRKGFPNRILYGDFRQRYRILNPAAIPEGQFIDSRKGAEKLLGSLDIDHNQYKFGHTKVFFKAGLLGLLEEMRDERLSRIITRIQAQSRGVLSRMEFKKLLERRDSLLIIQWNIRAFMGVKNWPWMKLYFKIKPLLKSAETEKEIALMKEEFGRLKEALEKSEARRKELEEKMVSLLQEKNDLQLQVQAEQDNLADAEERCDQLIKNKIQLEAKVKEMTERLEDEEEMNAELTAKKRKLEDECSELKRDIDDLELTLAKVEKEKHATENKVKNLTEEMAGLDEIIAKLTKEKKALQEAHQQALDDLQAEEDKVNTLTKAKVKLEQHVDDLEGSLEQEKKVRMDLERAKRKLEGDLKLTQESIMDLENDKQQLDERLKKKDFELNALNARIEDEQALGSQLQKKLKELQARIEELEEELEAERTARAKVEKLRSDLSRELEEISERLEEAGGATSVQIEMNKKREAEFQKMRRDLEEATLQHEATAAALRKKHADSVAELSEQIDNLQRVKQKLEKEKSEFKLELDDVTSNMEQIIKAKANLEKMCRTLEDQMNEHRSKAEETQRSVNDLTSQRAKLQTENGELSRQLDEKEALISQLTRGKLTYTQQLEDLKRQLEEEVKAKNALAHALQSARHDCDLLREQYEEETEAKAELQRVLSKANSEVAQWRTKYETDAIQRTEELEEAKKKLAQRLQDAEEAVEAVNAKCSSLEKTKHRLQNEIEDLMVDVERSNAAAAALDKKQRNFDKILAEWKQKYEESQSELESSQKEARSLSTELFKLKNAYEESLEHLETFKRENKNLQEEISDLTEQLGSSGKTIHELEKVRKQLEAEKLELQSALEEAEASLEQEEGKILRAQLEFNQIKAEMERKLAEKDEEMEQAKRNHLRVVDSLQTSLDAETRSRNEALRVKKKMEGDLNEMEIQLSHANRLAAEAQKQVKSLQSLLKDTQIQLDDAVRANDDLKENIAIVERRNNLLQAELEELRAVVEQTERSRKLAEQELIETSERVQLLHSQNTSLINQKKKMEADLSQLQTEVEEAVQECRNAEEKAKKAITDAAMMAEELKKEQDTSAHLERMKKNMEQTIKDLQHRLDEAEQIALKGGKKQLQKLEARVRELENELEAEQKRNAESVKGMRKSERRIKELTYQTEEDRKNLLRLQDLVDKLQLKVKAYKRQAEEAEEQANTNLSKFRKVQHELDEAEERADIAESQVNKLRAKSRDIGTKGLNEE
T1 sequence (P85100 whole entry partner): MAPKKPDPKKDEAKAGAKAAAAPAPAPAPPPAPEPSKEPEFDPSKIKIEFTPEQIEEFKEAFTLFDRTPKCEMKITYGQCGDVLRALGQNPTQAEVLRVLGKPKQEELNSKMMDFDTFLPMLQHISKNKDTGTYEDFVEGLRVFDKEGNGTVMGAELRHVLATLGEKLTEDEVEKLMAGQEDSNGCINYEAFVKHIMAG
T1 sequence (Q3SZE5 whole entry partner): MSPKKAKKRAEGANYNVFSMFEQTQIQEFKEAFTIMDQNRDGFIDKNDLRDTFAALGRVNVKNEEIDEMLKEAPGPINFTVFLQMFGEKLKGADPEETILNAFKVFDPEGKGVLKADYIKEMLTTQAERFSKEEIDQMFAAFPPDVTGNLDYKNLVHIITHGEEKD

- IC50 ([1]; Rattus norvegicus, oral dosing, read-out: estimated IC50 (plasma concentration, fractional shortening)): 2.9 µM
- IC15 (CDMF75) [2]: 0.5 µM
- IC50 [3]: 2.7 ± 0.12 µM
Compound: CC(C)c1nc(-c2ccc3c(c2)CC[C@H]3NC(=O)c2nnn(C)n2)no1 [(R)—N-(5-(5-isopropyl-1,2,4-oxadiazol-3-yl)-2,3-dihydro-1H-inden-1-yl)-2-methyl-2H-tetrazole-5-carboxamide]
- FS (% reduction from baseline) at 1-2 h post dose (Mean ± S.D.) ([1]; 6 mg/kg single oral gavage, 1-2 h post dose): 40 ± 9%
- FS (% reduction from baseline) at 4 h post dose (Mean ± S.D.) ([1]; 6 mg/kg single oral gavage, 4 h post dose): 18 ± 11%
- estimated IC10 (plasma concentration, fractional shortening) ([1]; oral dosing): 0.7 µM
- % FS (% reduction from baseline) ± SEM [4]: 67.8 ± −5.4%

Reference: patent US12649732B2, “Polymorphs of (R)-N-(5-(5-isopropyl-1,2,4-oxadiazol-3-yl)-2,3-dihydro-1H-inden-1-yl)-2-methyl-2H-tetrazole-5-carboxamide” (Cytokinetics, Inc., priority 2019, dated 2026)
